Structures can show the parent of a compound that is named as a salt.

Drawing on patent publication US10745380B2, “Pyridine derivatives and their use in the treatment of cancer and hemoglobinopathies” (CTXT PTY LTD, priority 2016, dated 2020), this text covers IC50 for two compounds.

For assay [1], the target named is Full-length PRMT5 enzyme co-expressed with His6-MEP50 (Homo sapiens (Human), UniProt O14744). The assay is described as follows: PRMT5 Biochemical Assay. Conditions: Transcreener EPIGEN methyltransferase assay, histone H4 derived peptide substrate, 4 hours at 37 degree Celsius. On the procedure: Assays PRMT5 Biochemical Assay
Compounds of the invention may be tested for in vitro activity in the following assay: A histone H4 derived peptide is used as substrate (amino acid sequence: […]NH2). Full-length PRMT5 enzyme (NCBI Reference sequence NP_006100.2) was co-expressed with His6-MEP50 in insect cells and purified via Nickel immobilized metal affinity and gel filtration chromatography (“the enzyme”).
The 6 μL reactions are run in Greiner brand black 384-well low volume assay plates. All reactions contained assay buffer (phosphate buffered saline, 0.01% (v/v) Tween-20, 0.01% (w/v) albumin from chicken egg white, 1 mM Dithiothreitol, 1 μM peptide substrate, 1 μM S-Adenosyl methionine, and 15 ng/reaction enzyme, with the enzyme being omitted from negative control reactions. Compounds were added in a volume of 100 nL from dilution series prepared in DMSO, positive and negative control reactions receiving the same volume DMSO without compound. The plates were sealed with adhesive seals and incubated for 4 hours at 37 degree Celsius. Reaction progress was measured using the Transcreener™ EPIGEN methyltransferase assay (BellBrook Labs, Madison, Wis.) as recommended by the manufacturer. To each reaction 2 μL detection mix were added, containing coupling enzymes, fluorescence polarisation tracer, and AMP antibody. […]

Another assay concerns TE11 cell line. The experiment in a line: PRMT5 Biomarker Assay (symmetrical dimethylation of arginine, Histone H4 Arginine 3). Format: cell-based. Conditions: TE11 cells, 72 hours incubation, Di-Methyl Histone H4 Arginine 3 level. On the procedure: Compounds of the invention may be tested for potency to inhibit symmetrical dimethylation of arginine in the following assay:
The cell line TE11 was seeded at a density of 6,000 cells per well in 96 well optical quality tissue culture plates in DME medium and 10% foetal bovine serum, and allowed to adhere for 5 hours under standard culture conditions (37 degree Celsius, 5% CO2). Compound dilutions prepared in DMSO were added to the medium, with negative control wells reserved for treatment with DMSO only and maximum inhibition controls receiving a potent PRMT5 inhibitor compound at 1 μM concentration. After incubation for 72 hours, the cells were fixed with 3.7% formaldehyde in PBS for 30 minutes at room temperature, washed with phosphate buffer saline and blocked with Odyssey blocking buffer (LI-COR, Lincoln, Nebr.). Rabbit anti-Di-Methyl Histone H4 Arginine 3 specific antibody (Epigentek) in Odyssey blocking buffer was added and incubated for 14 hours at 4 degree Celsius. […] Plates were washed and read on a PerkinElmer Envision 2103 in fluorescence intensity scanning mode (24 scans across the well area). […] Using a Columbus image analysis pipeline, individual nuclei were located by Hoechst 33342 stain and the methylation level was calculated from the Alexa647-related intensity in the same area. […]

Chain of Full-length PRMT5 enzyme co-expressed with His6-MEP50 (O14744 whole entry): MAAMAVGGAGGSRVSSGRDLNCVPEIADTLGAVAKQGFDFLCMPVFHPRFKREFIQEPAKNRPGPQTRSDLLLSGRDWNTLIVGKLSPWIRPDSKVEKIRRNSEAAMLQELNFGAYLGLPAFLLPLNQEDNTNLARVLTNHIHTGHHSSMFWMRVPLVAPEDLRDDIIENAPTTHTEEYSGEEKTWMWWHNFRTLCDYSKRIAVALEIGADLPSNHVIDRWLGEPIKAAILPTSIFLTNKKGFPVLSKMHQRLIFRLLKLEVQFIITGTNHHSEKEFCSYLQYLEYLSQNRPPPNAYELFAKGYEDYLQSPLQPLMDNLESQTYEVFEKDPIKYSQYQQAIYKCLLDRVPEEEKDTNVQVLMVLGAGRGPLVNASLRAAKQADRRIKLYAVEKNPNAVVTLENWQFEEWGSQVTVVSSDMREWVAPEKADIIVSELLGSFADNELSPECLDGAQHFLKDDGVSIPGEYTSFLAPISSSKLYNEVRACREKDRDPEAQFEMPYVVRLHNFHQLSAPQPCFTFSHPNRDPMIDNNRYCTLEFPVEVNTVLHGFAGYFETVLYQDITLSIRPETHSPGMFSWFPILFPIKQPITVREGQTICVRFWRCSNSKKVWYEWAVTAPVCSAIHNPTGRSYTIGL
Chain of Full-length PRMT5 enzyme co-expressed with His6-MEP50 (Q9BQA1 whole entry partner): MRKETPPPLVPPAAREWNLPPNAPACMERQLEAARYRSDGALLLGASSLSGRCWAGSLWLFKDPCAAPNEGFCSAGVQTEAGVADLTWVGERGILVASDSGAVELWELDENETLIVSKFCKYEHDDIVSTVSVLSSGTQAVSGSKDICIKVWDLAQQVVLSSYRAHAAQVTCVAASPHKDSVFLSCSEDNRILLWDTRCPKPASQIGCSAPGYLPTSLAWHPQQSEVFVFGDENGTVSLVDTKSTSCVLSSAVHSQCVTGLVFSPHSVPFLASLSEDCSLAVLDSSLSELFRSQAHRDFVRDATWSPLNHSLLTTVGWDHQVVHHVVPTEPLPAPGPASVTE

Regarding `CCOc1nc(OCc2ccccc2)ccc1C(=O)NC[C@@H](O)CNC1Cc2ccccc2C1` [Compound 1, (S)-6-(Benzyloxy)-N-(3-((2,3-dihydro-1H-inden-2-yl)amino)-2-hydroxypropyl)-2-ethoxy nicotin amide hydrochloride], the half-inhibitory concentration (IC50) was determined as 0.086 µM in assay [1] and 0.079 µM in the assay on TE11 cell line.

Take `CC(=O)N1CCC(Nc2nccc(C(=O)NC[C@@H](O)CNC3Cc4ccccc4C3)c2Cl)CC1` [Compound 2]: the IC50 in assay [1] turned out to be 0.105 µM; in the assay on TE11 cell line (Homo sapiens, TE-11) it was 0.035 µM.

The term IC50 denotes the concentration that gives 50% inhibition. The low end stands for greater potency in that assay, the high end for weaker potency in that assay.
